# Measurements: US8916576B2 (Surface Logix, Inc., priority 2005, dated 2014)
# Several values for one entry are separate records, joined by “and”; a condition that tells them apart may be missing. Identical values can stand only once.
# Molecular target: ROCK2 (Homo sapiens (Human), UniProt O75116)
# Assay: Inhibition of ROCK2 (Rho kinase inhibition assay; ROCK-II Assay Kit / IMAP)
# Assay type: biochemical
# Details: FIG. 10 legend; ROCK2 versus ROCK1 and PKC
# Description: (§1) Methods of determining kinase inhibition are well known in the art. For example, kinase activity of an enzyme and the inhibitory capacity of a test compound can be determined by measuring enzyme specific phosphorylation of a substrate. Commercial assays and kits can be employed. For example, kinase inhibition can be determined using an IMAP® assay (Molecular Devices). This assay method involves the use of a fluorescently-tagged peptide substrate. Phosphorylation of the tagged peptide by a kinase of interest promotes binding of the peptide to a trivalent metal-based nanoparticle via the specific, high affinity interaction between the phospho-group and the trivalent metal. Proximity to the nanoparticle results in increased fluorescence polarization. Inhibition of the kinase by a kinase inhibitor prevents phosphorylation of the substrate and thereby limits binding of the fluorescently-tagged substrate to the nanoparticle. Such an assay can be compatible with a microwell assay format, allowing simultaneous determination of IC50 of multiple compounds.
# ROCK-II inhibitory activity can be measured using the ROCK-II Assay Kit (Molecular Devices, inc.; Sunnyvale, Calif.).
# (§2) Inhibition of ROCK2 by various compounds was determined.
# (§3) Inhibitory activity for Rho kinase was determined for examples of compounds of the present invention. Inhibition of Rho kinase can be assayed as described. For each of these compounds their inhibitory activity for both ROCK 1 and ROCK 2 was determined. […] The IC50 values (in μM) for each of these compounds show a selectivity for inhibiting ROCK2.
# Sequence of ROCK2 (O75116 whole entry, species assumed): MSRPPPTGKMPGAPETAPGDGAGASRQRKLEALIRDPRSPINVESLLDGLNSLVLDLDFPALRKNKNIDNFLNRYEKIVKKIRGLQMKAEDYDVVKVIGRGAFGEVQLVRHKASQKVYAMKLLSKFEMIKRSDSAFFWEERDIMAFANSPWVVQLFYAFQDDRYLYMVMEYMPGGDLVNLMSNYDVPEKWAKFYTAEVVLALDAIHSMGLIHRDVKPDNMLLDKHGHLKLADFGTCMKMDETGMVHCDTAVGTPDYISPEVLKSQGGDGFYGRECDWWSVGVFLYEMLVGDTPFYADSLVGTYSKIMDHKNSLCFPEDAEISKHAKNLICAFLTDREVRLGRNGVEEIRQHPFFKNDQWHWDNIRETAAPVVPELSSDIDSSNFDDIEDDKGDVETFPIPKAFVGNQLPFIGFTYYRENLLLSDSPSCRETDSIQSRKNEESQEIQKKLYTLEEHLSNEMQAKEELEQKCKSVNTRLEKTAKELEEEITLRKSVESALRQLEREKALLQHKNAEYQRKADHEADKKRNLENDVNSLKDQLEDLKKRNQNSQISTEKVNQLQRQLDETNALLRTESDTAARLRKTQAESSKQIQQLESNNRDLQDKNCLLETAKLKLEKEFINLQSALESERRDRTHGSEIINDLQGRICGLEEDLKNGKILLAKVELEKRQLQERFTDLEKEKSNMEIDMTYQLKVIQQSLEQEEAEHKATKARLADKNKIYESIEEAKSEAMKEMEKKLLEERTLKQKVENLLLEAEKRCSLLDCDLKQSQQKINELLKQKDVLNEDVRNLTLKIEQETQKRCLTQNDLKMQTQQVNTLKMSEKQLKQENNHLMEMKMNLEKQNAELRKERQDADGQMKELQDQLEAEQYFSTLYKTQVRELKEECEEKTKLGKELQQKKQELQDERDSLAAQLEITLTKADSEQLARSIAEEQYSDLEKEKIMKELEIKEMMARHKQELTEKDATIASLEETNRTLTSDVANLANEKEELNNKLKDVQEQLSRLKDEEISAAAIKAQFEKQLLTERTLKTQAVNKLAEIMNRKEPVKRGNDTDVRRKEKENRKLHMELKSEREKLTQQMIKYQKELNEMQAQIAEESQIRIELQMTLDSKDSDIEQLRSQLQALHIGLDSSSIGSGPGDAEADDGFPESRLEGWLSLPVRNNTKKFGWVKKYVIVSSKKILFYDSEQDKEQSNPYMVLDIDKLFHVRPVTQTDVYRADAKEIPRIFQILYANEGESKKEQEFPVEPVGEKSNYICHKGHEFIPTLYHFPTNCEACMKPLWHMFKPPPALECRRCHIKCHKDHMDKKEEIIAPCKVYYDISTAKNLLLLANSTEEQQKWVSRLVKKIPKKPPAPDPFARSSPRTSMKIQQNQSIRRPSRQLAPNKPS
row,SMILES,Specificity of kinase inhibition (FIG. 10)
1,"C[C@@H](N)[C@H]1CC[C@H](C(=O)Nc2ccncc2)CC1 [Example Y27632, reference compound]","inhibits both ROCK1 and ROCK2, as well as PKC"
2,"CC(C)NC(=O)COc1cccc(-c2nc(Nc3ccc4[nH]ncc4c3)c3ccccc3n2)c1 [Example 82, 2-(3-(4-(1H-indazol-5-ylamino)quinazolin-2-yl)phenoxy)-N-isopropylacetamide]",specific inhibition of ROCK2

# Same assay, conditions: Table 1; repeat determinations
row,IC50,SMILES
1,> 100 µM,O=C(COc1ccccc1-c1nc(Nc2ccc3[nH]ncc3c2)c2ccccc2n1)NCc1ccccc1 [Example 237]
2,3.9 µM,Oc1ccc2nc(-c3ccccc3)nc(Nc3ccc4[nH]ncc4c3)c2c1 [Example 267]
3,> 100 µM,O=C(Nc1ccccc1-c1nc(Nc2ccc3[nH]ncc3c2)c2ccccc2n1)C1CCCNC1 (centres unmarked) [Example 218]
4,> 100 µM,O=C(Nc1ccccc1-c1nc(Nc2ccc3[nH]ncc3c2)c2ccccc2n1)N1CCOCC1 [Example 220]
5,> 100 µM,CC(C)(C)C(=O)Nc1ccccc1-c1nc(Nc2ccc3[nH]ncc3c2)c2ccccc2n1 [Example 214]
6,0.016 µM and 0.014 µM,"CCCC(=O)Nc1cccc(-c2nc(Nc3ccc4[nH]ncc4c3)c3cc(OCCN4CCN(C)CC4)c(OC)cc3n2)c1 [Example 209, N-(3-(4-(1H-indazol-5-ylamino)-7-methoxy-6-(2-(4-methylpiperazin-1-yl)ethoxy)quinazolin-2-yl)phenyl)butyramide]"
7,> 100 µM,COCCN(C)CC(=O)Nc1ccccc1-c1nc(Nc2ccc3[nH]ncc3c2)c2ccccc2n1 [Example 213]
8,> 0.3 µM,CCCC(=O)Nc1cccc(-c2nc(Nc3ccc4c(cnn4C)c3)c3cc(OCCN(C)C)ccc3n2)c1 [Example 243]
9,1.7 µM,COCC(=O)Nc1ccccc1-c1nc(Nc2ccc3[nH]ncc3c2)c2ccccc2n1 [Example 225]
10,> 100 µM,O=C(COc1ccccc1-c1nc(N(CC(=O)NCc2ccccc2)c2ccc3[nH]ncc3c2)c2ccccc2n1)NCc1ccccc1 [Example 236]
11,> 100 µM,CC(C)NC(=O)COc1ccccc1-c1nc(Nc2ccc3[nH]ncc3c2)c2ccccc2n1 [Example 232]
12,0.011 µM and 0.012 µM and 0.008 µM and 0.013 µM,"CCCC(=O)Nc1cccc(-c2nc(Nc3ccc4[nH]ncc4c3)c3cc(OCCN4CCC(O)C4)ccc3n2)c1 (centres unmarked) [Example 205, N-(3-(4-(1H-indazol-5-ylamino)-6-(2-(3-hydroxypyrrolidin-1-yl)ethoxy)-quinazolin-2-yl)phenyl)butyramide]"
13,> 100 µM,O=C(Nc1ccccc1-c1nc(Nc2ccc3[nH]ncc3c2)c2ccccc2n1)c1ccccn1 [Example 223]
14,0.048 µM and 0.064 µM,"CCCC(=O)Nc1cccc(-c2nc(Nc3ccc4[nH]ncc4c3)c3cc(OCCN4CCCC4=O)c(OC)cc3n2)c1 [Example 206, N-(3-(4-(1H-indazol-5-ylamino)-7-methoxy-6-(2-(2-oxopyrrolidin-1-yl)ethoxy)quinazolin-2-yl)phenyl)butyramide]"
15,> 100 µM,O=C(Nc1ccccc1-c1nc(Nc2ccc3[nH]ncc3c2)c2ccccc2n1)c1ccoc1 [Example 216]
16,17 µM and > 10 µM,CNCC(=O)Nc1ccccc1-c1nc(Nc2ccc3[nH]ncc3c2)c2ccccc2n1 [Example 215]
17,> 100 µM,CCCC(=O)Nc1ccccc1-c1nc(Nc2ccc3[nH]ncc3c2)c2ccccc2n1 [Example 212]
18,23 µM,CC(=O)Oc1ccccc1-c1nc(Nc2ccc3[nH]ncc3c2)c2ccccc2n1 [Example 240]
19,2.9 µM,COC(=O)Nc1ccccc1-c1nc(Nc2ccc3[nH]ncc3c2)c2ccccc2n1 [Example 219]

row,IC50,SMILES
1,2 µM and 2.5 µM,Oc1ccccc1-c1nc(Nc2ccc3[nH]ncc3c2)c2ccccc2n1 [Example 233]
2,6.5 µM and 7.3 µM,c1ccc(-c2nc(Nc3ccc4[nH]ncc4c3)c3cc(OCCN4CCOCC4)ccc3n2)cc1 [Example 265]
3,0.029 µM,CCCCC(=O)Nc1cccc(-c2nc(Nc3ccc4[nH]ncc4c3)c3ccccc3n2)c1 [Example 259]
4,36 µM,O=C(CN1CCCC1)Nc1ccccc1-c1nc(Nc2ccc3[nH]ncc3c2)c2ccccc2n1 [Example 217]
5,> 100 µM,O=C(COc1ccccc1-c1nc(N(CC(=O)NCC2CC2)c2ccc3[nH]ncc3c2)c2ccccc2n1)NCC1CC1 [Example 235]
6,0.024 µM,CCCC(=O)Nc1cccc(-c2nc(Nc3ccc4[nH]ncc4c3)c3cc(OC)c(OCCOC)cc3n2)c1 [Example 262]
7,0.255 µM and 0.182 µM,CCCC(=O)Nc1cccc(-c2nc(Nc3ccc4[nH]ncc4c3)c3cc(OCC4CC4)ccc3n2)c1 [Example 258]
8,0.012 µM and 0.0095 µM,"CCCC(=O)Nc1cccc(-c2nc(Nc3ccc4[nH]ncc4c3)c3cc(OCCN4CCN(C)CC4)ccc3n2)c1 [Example 203, N-(3-(4-(1H-indazol-5-ylamino)-6-(2-(4-methylpiperazin-1-yl)ethoxy)-quinazolin-2-yl)phenyl)butyramide]"
9,> 100 µM,O=C(Nc1ccccc1-c1nc(Nc2ccc3[nH]ncc3c2)c2ccccc2n1)c1ccncc1 [Example 222]
10,> 3 µM,CC(C)NC(=O)CNc1cccc(-c2nc(Nc3ccc4[nH]ncc4c3)c3ccccc3n2)c1 [Example 230]
11,49 µM,CN(C)C(=O)Nc1ccccc1-c1nc(Nc2ccc3[nH]ncc3c2)c2ccccc2n1 [Example 221]
12,> 100 µM,COc1ccccc1-c1nc(Nc2ccc3[nH]ncc3c2)c2ccccc2n1 [Example 239]
13,> 3 µM,O=C(CN1CCOCC1)Nc1ccccc1-c1nc(Nc2ccc3[nH]ncc3c2)c2ccccc2n1 [Example 231]
14,> 100 µM,COCCNC(=O)COc1ccccc1-c1nc(Nc2ccc3[nH]ncc3c2)c2ccccc2n1 [Example 234]
15,> 0.3 µM,CCCC(=O)Nc1cccc(-c2nc(Nc3ccc4c(cnn4C(=O)OC(C)(C)C)c3)c3cc(OCCOC)c(OC)cc3n2)c1 [Example 261]
16,0.018 µM and 0.01 µM,"CCCC(=O)Nc1cccc(-c2nc(Nc3ccc4[nH]ncc4c3)c3cc(OCCN4CC[C@H](N(C)C)C4)c(OC)cc3n2)c1 [Example 210, N-(3-(4-(1H-indazol-5-ylamino)-6-(2-((S)-3-(dimethylamino)pyrrolidin-1-yl)ethoxy)-7-methoxyquinazolin-2-yl)phenyl)butyramide]"
17,5.3 µM,CN(C)CCC(=O)Nc1ccccc1-c1nc(Nc2ccc3[nH]ncc3c2)c2ccccc2n1 [Example 224]
18,0.129 µM,CCCC(=O)Oc1cccc(-c2nc(Nc3ccc4[nH]ncc4c3)c3ccccc3n2)c1 [Example 211]
19,> 100 µM,COCCNC(=O)COc1ccccc1-c1nc(N(CC(=O)NCCOC)c2ccc3[nH]ncc3c2)c2ccccc2n1 [Example 238]

# Molecular target: ROCK 1 (Homo sapiens (Human), UniProt Q13464)
# Assay: Inhibition of ROCK1 (Rho kinase inhibition assay)
# Assay type: biochemical
# Details: Tables 2.1-2.4
# Description: as §1, §2, §3
# Sequence of ROCK 1 (Q13464 whole entry, species assumed): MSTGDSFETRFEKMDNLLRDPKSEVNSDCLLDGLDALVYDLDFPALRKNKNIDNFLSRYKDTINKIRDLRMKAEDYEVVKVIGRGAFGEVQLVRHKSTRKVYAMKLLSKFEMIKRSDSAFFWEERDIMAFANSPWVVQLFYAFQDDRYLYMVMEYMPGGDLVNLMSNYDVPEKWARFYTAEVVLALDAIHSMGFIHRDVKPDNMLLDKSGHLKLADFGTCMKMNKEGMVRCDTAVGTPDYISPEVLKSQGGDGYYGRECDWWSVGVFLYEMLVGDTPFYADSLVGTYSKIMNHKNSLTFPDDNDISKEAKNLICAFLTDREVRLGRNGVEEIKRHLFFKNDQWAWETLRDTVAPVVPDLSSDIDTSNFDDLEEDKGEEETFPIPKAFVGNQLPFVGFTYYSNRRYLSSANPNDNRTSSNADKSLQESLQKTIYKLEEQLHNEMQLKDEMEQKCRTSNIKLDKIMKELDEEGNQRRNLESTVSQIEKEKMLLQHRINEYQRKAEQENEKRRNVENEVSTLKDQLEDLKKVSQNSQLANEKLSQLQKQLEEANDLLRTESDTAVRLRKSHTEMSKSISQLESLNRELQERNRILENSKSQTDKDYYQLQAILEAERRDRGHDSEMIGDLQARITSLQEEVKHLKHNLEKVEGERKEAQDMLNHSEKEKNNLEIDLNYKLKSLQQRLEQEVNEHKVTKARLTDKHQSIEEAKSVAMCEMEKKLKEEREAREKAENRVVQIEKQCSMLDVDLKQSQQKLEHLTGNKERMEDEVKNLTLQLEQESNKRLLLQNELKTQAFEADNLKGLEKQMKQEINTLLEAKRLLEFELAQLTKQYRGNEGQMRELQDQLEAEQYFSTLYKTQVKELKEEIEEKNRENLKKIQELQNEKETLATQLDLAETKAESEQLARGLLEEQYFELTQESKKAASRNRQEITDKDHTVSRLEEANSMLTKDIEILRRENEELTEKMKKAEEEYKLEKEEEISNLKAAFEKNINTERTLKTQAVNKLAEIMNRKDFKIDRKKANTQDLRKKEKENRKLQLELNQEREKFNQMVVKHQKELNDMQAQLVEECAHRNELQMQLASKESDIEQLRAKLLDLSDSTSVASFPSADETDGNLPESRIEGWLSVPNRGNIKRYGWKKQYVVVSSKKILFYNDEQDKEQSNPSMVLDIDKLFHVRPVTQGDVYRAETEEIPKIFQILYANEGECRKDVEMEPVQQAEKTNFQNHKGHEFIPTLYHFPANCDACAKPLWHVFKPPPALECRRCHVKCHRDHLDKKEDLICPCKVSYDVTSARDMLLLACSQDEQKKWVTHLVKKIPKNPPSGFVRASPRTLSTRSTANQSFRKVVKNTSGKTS
row,IC50 [nM],SMILES
1,> 3000,"CCCC(=O)Nc1cccc(-c2nc(Nc3ccc4[nH]ncc4c3)c3cc(OCCCN4CCOCC4)c(OC)cc3n2)c1 [Example 160, N-(3-(4-(1H-indazol-5-ylamino)-7-methoxy-6-(3-morpholinopropoxy)quinazolin-2-yl)phenyl)butyramide]"
2,> 1000,"CCCC(=O)Nc1cccc(-c2nc(Nc3ccc4[nH]ncc4c3)c3cc(OCCN(C)C)ccc3n2)c1 [Example 141, N-(3-(4-(1H-indazol-5-ylamino)-6-(2-(dimethylamino)ethoxy)quinazolin-2-yl)phenyl)butyramide]"
3,> 10000,"O=C(COc1cccc(-c2nc(Nc3ccc4[nH]ncc4c3)c3ccccc3n2)c1)Nc1cccnc1 [Example 55, 2-(3-(4-(1H-indazol-5-ylamino)quinazolin-2-yl)phenoxy)-N-(pyridin-3-yl)acetamide]"
4,> 10000,CC(=O)Oc1cccc(-c2nc(Nc3ccc4[nH]ncc4c3)c3ccccc3n2)c1 [Example 272]
5,> 3000,"COc1cc2nc(-c3cccc(NC(=O)CN4CCOCC4)c3)nc(Nc3ccc4[nH]ncc4c3)c2cc1OCCN1CCCC1 [Example 167, N-(3-(4-(1H-Indazol-5-ylamino)-7-methoxy-6-(2-(pyrrolidin-1-yl)ethoxy)quinazolin-2-yl)phenyl)-2-morpholinoacetamide]"
6,> 3000,CCCC(=O)Nc1cccc(-c2nc(Nc3ccc4[nH]ncc4c3)c3ccc(OCCOC)cc3n2)c1 [Example 263]
7,> 10000,"COCCNC(=O)COc1cccc(-c2nc(Nc3ccc4[nH]ncc4c3)c3ccccc3n2)c1 [Example 54, 2-(3-(4-(1H-indazol-5-ylamino)quinazolin-2-yl)phenoxy)-N-(2-methoxyethyl)acetamide]"
